Data reported in patent publication US20240316017A1, “NOVEL PYRIDINE DERIVATIVE COMPOUND AS RON INHIBITOR” (LG CHEM, LTD., priority 2021, published 2024).

Assays:
RON = RON (Homo sapiens, UniProt Q04912); assay: Evaluation of inhibitory activity against RON (TR-FRET kinase assay); assay type: biochemical; conditions: RON protein, ULight-labeled Poly GT substrate
Method in brief: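 TR-FRET kinase assay with 0.4 nM RON (pre-dilution) in pH 7.4 HEPES buffer; compounds in 10-point 3-fold series, preincubated with enzyme 20–30 min at RT, then 1× of 2× cocktail (40 uM ULight-poly GT, 100 nM ATP) for 60 min. EDTA-stopped; Eu-anti-phosphotyrosine read at 620/665 nm; IC50 from curve fit.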

cMET = cMET (Homo sapiens, UniProt P08581); assay: Evaluation of inhibitory activity against MET (TR-FRET kinase assay); assay type: biochemical; conditions: cMET protein, TK peptide substrate
cMET, sequence (P08581 25-1390): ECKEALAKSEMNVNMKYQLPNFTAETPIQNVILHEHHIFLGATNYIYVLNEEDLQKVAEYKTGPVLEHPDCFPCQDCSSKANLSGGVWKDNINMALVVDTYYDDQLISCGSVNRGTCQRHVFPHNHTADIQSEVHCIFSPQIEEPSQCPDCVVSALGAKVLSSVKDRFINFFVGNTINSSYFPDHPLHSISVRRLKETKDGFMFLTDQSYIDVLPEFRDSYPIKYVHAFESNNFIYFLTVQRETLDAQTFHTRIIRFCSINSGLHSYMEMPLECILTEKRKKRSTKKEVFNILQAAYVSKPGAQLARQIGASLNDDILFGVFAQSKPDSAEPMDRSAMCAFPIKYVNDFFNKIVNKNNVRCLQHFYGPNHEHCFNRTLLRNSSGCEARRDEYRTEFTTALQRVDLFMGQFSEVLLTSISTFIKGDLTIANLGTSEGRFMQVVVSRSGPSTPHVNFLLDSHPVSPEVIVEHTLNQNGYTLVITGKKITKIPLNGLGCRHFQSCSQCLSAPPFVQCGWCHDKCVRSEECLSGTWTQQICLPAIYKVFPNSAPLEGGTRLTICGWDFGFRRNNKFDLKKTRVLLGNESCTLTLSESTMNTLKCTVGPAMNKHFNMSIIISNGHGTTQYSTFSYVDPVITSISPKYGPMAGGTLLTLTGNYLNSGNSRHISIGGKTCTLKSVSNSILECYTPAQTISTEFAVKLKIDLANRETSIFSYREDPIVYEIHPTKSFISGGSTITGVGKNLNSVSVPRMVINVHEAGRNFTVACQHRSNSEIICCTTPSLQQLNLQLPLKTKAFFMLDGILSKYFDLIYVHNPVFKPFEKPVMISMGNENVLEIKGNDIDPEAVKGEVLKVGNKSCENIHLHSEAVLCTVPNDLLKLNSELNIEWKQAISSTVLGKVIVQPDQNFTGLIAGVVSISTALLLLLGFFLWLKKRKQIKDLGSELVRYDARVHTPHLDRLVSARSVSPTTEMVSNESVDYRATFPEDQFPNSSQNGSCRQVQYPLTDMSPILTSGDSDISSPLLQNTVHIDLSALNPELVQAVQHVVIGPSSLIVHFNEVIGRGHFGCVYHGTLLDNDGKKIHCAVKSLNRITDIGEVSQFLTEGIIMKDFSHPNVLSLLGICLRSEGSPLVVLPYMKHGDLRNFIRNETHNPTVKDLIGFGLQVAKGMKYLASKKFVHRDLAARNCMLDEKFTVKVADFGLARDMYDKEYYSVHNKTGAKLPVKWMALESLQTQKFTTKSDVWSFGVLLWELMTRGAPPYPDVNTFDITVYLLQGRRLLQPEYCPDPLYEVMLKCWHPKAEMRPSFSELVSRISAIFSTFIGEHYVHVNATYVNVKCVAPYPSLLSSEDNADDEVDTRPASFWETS
Method in brief: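 Human cMET was used at 2 nM before mixing, in 50 mM HEPES pH 7.4, 20 mM MgCl2, 0.5 mM MnCl2, 0.05% BSA, 1 mM DTT. Compound (1 mM DMSO stock, 10-point 3-fold series) was preincubated with enzyme 20-30 min at RT. A 2× cocktail (5 uM TK peptide, 10 mM ATP) was added for 60 min, then EDTA stop, Eu-anti-phosphotyrosine TR-FRET (665/620 nm) and IC50.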

RON, sequence (Q04912 25-1400, species assumed): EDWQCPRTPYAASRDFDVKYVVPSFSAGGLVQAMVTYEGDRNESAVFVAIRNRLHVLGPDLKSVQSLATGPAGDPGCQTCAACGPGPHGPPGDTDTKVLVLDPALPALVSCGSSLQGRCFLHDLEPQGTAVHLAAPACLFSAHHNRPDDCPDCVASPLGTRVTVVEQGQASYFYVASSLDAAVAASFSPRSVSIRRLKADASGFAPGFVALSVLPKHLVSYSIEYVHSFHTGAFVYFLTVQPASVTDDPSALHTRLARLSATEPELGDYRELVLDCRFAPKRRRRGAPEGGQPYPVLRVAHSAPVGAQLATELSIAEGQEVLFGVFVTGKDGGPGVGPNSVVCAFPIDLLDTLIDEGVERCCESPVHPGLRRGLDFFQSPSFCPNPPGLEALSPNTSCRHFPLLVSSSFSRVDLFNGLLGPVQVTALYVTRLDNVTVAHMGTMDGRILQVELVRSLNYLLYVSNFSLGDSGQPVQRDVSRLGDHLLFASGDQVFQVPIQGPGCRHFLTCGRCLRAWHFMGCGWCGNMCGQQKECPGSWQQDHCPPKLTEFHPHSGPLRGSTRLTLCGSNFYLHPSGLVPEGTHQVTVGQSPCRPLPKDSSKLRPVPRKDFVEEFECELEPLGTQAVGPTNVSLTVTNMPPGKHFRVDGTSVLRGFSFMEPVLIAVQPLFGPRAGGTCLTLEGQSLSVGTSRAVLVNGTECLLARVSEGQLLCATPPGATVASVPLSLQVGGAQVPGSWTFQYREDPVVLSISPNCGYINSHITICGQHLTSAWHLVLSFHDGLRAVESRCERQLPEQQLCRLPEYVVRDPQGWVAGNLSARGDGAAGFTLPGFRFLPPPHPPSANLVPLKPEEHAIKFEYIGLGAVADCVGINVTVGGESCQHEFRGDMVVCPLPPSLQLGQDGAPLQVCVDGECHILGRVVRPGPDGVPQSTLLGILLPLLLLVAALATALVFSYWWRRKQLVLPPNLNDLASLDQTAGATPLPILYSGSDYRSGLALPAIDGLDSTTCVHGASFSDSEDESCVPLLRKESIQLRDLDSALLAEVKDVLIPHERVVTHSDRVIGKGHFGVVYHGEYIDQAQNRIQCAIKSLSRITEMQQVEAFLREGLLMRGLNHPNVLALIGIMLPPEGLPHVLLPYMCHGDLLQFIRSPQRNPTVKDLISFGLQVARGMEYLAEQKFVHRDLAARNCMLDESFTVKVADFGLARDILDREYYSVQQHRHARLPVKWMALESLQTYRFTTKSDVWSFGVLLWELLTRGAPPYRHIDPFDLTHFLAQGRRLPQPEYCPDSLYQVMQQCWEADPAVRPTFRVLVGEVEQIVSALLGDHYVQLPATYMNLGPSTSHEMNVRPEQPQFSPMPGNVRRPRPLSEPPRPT

| Compound | IC50 (RON) | IC50 (cMET) |
| --- | --- | --- |
| Nc1nccc(Oc2ccc(NC(=O)c3cnn(-c4ccccc4)c3N)cc2F)c1Cl [Example 10, 5-amino-N-(4-((2-amino-3-chloropyridin-4-yl)oxy)-3-fluorophenyl)-1-phenyl-1H-pyrazole-4-carboxamide] | 0.5 to 5 µM | > 5 µM |
| Nc1nccc(Oc2ccc(NC(=O)c3onc(-c4ccccc4)c3C(F)(F)F)cc2F)c1Cl [Example 38, N-(4-((2-amino-3-chloropyridin-4-yl)oxy)-3-fluorophenyl)-3-phenyl-4-(trifluoromethyl)isoxazole-5-carboxamide] | 0.05 to 0.5 µM | > 5 µM |
